Measured values as given in patent US10435399B2, “HDAC6 inhibitory heterocyclic compound” (TAKEDA PHARMACEUTICAL COMPANY LIMITED, priority 2017, dated 2019).

Biological target: T1, HDAC6 enzyme (Homo sapiens, UniProt Q9UBN7)
T1 construct: transducing full length HDAC6 gene into Sf-9 insect cells; GST; purchased SignalChem; host or cells: Sf-9 insect cells
T1 sequence (Q9UBN7 1-1215): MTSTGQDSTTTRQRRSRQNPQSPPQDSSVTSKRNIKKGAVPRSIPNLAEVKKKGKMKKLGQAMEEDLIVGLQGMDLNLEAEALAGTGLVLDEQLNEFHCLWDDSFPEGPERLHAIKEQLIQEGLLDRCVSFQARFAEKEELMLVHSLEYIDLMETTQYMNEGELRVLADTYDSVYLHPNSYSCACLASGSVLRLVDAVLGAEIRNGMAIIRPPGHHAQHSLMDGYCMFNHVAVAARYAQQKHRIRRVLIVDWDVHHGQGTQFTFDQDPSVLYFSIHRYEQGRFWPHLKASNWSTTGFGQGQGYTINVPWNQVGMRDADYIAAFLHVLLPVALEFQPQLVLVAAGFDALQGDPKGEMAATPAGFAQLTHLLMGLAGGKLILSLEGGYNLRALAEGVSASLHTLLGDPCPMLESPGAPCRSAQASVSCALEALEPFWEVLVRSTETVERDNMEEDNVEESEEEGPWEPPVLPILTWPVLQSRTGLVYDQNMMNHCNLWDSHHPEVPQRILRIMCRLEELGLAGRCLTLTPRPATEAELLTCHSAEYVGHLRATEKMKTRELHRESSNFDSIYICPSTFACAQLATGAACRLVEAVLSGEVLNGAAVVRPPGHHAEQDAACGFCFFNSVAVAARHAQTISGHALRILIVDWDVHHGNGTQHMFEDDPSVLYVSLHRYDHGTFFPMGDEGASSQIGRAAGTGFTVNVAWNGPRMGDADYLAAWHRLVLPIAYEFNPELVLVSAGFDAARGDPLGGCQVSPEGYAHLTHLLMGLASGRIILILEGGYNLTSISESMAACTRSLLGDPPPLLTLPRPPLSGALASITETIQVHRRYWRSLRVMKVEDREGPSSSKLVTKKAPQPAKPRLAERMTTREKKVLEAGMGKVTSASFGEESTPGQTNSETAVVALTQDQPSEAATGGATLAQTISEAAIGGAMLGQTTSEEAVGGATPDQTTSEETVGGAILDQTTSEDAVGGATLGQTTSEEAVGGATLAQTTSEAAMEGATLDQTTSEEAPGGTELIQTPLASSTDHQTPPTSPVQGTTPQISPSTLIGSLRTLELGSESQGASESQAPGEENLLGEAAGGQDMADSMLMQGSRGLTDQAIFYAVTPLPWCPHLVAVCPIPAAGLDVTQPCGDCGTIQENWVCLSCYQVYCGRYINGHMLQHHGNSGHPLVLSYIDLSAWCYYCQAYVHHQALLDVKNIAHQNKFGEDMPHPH
Test: HDAC6 enzyme inhibitory activity (HDAC-Glo I/II Assay kit)
Assay type: biochemical
Conditions: 10 μM; wells without enzyme = 100% inhibition; read-out: HDAC6 inhibitory rate (%) (10 μM)
In short: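 Luminescent HDAC-Glo I/II readout after 20 min room-temperature reaction with substrate-developer, following 60 min compound–enzyme preincubation. Enzyme: full-length HDAC6 from Sf-9 cells, GST-purified; buffer 24 mM Tris-HCl pH 7.5, 0.01% Tween-20, glutathione, salts. Wells lacking enzyme define 100% inhibition.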

inhibition at 10 µM	Compound
97%	O=C1c2cc(-c3nnc(C(F)F)o3)ccc2CN1c1ccccc1-c1ccccc1F [Example 277, 6-(5-(difluoromethyl)-1,3,4-oxadiazol-2-yl)-2-(2'-fluorobiphenyl-2-yl)isoindolin-1-one]
99%	O=C1c2cc(-c3nnc(C(F)F)o3)ccc2CN1c1ccccc1-c1cccc(F)c1 [Example 278, 6-(5-(difluoromethyl)-1,3,4-oxadiazol-2-yl)-2-(3′-fluorobiphenyl-2-yl)-isoindolin-1-one]
89%	N#Cc1ccc(-c2ccccc2N2Cc3ccc(-c4nnc(C(F)F)o4)cc3C2=O)cc1 [Example 279, 2′-(6-(5-(difluoromethyl)-1,3,4-oxadiazol-2-yl)-1-oxo-1,3-dihydro-2H-isoindol-2-yl)-biphenyl-4-carbonitrile]
99%	CCc1ncccc1-c1ccccc1N1Cc2ccc(-c3nnc(C(F)F)o3)cc2C1=O [Example 280, 6-(5-(difluoromethyl)-1,3,4-oxadiazol-2-yl)-2-(2-(2-ethylpyridin-3-yl)phenyl)-isoindolin-1-one]
98%	O=C1c2cc(-c3nnc(C(F)F)o3)ccc2CN1c1ccccc1-c1ccccc1Cl [Example 281, 2-(2′-chlorobiphenyl-2-yl)-6-(5-(difluoromethyl)-1,3,4-oxadiazol-2-yl)isoindolin-1-one]
98%	O=C1c2cc(-c3nnc(C(F)F)o3)ccc2CN1c1ccccc1-c1ccc(Cl)cc1 [Example 282, 2-(4′-chlorobiphenyl-2-yl)-6-(5-(difluoromethyl)-1,3,4-oxadiazol-2-yl)isoindolin-1-one]
99%	O=C1c2cc(-c3nnc(C(F)F)o3)ccc2CN1c1ccccc1-c1cccc(Cl)c1 [Example 283, 2-(3′-chlorobiphenyl-2-yl)-6-(5-(difluoromethyl)-1,3,4-oxadiazol-2-yl)isoindolin-1-one]
101%	O=C1c2cc(-c3nnc(C(F)F)o3)ccc2CN1c1ccccc1-c1cc(F)cc(F)c1 [Example 284, 2-(3′,5′-difluorobiphenyl-2-yl)-6-(5-(difluoromethyl)-1,3,4-oxadiazol-2-yl)isoindolin-1-one]
95%	O=C1c2cc(-c3nnc(C(F)F)o3)ccc2CN1c1ccccc1-c1ccc(C2CC2)cc1 [Example 285, 2-(4′-cyclopropylbiphenyl-2-yl)-6-(5-(difluoromethyl)-1,3,4-oxadiazol-2-yl)isoindolin-1-one]
99%	O=C1c2cc(-c3nnc(C(F)F)o3)ccc2CN1c1ccccc1-c1cccc(C2CC2)c1 [Example 286, 2-(3′-cyclopropylbiphenyl-2-yl)-6-(5-(difluoromethyl)-1,3,4-oxadiazol-2-yl)isoindolin-1-one]
100%	O=C1c2cc(-c3nnc(C(F)F)o3)ccc2CN1c1ccccc1-c1ccc2c(c1)CCO2 [Example 287, 6-(5-(difluoromethyl)-1,3,4-oxadiazol-2-yl)-2-(2-(2,3-dihydro-1-benzofuran-5-yl)phenyl)isoindolin-1-one]
102%	O=C1c2cc(-c3nnc(C(F)F)o3)ccc2CN1c1ccccc1-c1cccc2c1CCO2 [Example 288, 6-(5-(difluoromethyl)-1,3,4-oxadiazol-2-yl)-2-(2-(2,3-dihydro-1-benzofuran-4-yl)phenyl)isoindolin-1-one]
101%	O=C1c2cc(-c3nnc(C(F)F)o3)ccc2CN1c1ccccc1-c1cccc2c1OCC2 [Example 289, 6-(5-(difluoromethyl)-1,3,4-oxadiazol-2-yl)-2-(2-(2,3-dihydro-1-benzofuran-7-yl)phenyl)isoindolin-1-one]
99%	CCOc1cc(-c2ccccc2N2Cc3ccc(-c4nnc(C(F)F)o4)cc3C2=O)ccn1 [Example 290, 6-(5-(difluoromethyl)-1,3,4-oxadiazol-2-yl)-2-(2-(2-ethoxypyridin-4-yl)-phenyl)isoindolin-1-one]
98%	CCOc1cnccc1-c1ccccc1N1Cc2ccc(-c3nnc(C(F)F)o3)cc2C1=O [Example 291, 6-(5-(difluoromethyl)-1,3,4-oxadiazol-2-yl)-2-(2-(3-ethoxypyridin-4-yl)-phenyl)isoindolin-1-one]
97%	O=C1c2cc(-c3nnc(C(F)F)o3)ccc2CN1c1ccccc1-c1ccc(C(F)F)cc1 [Example 292, 2-(4′-(difluoromethyl)-biphenyl-2-yl)-6-(5-(difluoromethyl)-1,3,4-oxadiazol-2-yl)isoindolin-1-one]
100%	O=C1c2cc(-c3nnc(C(F)F)o3)ccc2CN1c1ccccc1-c1cccc(C(F)F)c1 [Example 293, 2-(3′-(difluoromethyl)-biphenyl-2-yl)-6-(5-(difluoromethyl)-1,3,4-oxadiazol-2-yl)isoindolin-1-one]
100%	CC(C)Oc1cc(-c2ccccc2N2Cc3ccc(-c4nnc(C(F)F)o4)cc3C2=O)ccn1 [Example 294, 6-(5-(difluoromethyl)-1,3,4-oxadiazol-2-yl)-2-(2-(2-isopropoxypyridin-4-yl)phenyl)isoindolin-1-one]
102%	COc1ncc(Cl)cc1-c1ccccc1N1Cc2ccc(-c3nnc(C(F)F)o3)cc2C1=O [Example 295, 2-(2-(5-chloro-2-methoxy-pyridin-3-yl)phenyl)-6-(5-(difluoromethyl)-1,3,4-oxadiazol-2-yl)isoindolin-1-one]
101%	O=C1c2cc(-c3nnc(C(F)F)o3)ccc2CN1c1ccccc1-c1cccc(OC(F)F)c1 [Example 296, 2-(3′(difluoromethoxy)-biphenyl-2-yl)-6-(5-(difluoromethyl)-1,3,4-oxadiazol-2-yl)isoindolin-1-one]
98%	O=C1c2cc(-c3nnc(C(F)F)o3)ccc2CN1c1ccccc1-c1cncc(C(F)(F)F)c1 [Example 297, 6-(5-(difluoromethyl)-1,3,4-oxadiazol-2-yl)-2-(2-(5-(trifluoromethyl)pyridin-3-yl)phenyl)isoindolin-1-one]
100%	O=C1c2cc(-c3nnc(C(F)F)o3)ccc2CN1c1ccccc1-c1ccccc1OC(F)(F)F [Example 298, 6-(5-(difluoromethyl)-1,3,4-oxadiazol-2-yl)-2-(2′-(trifluoromethoxy)biphenyl-2-yl)isoindolin-1-one]
94%	O=C1c2cc(-c3nnc(C(F)F)o3)ccc2CN1c1ccccc1-c1ccc(OC(F)(F)F)cc1 [Example 299, 6-(5-(difluoromethyl)-1,3,4-oxadiazol-2-yl)-2-(4′-(trifluoromethoxy)biphenyl-2-yl)isoindolin-1-one]
97%	O=C1c2cc(-c3nnc(C(F)F)o3)ccc2CN1c1ccccc1-c1cccc(OC(F)(F)F)c1 [Example 300, 6-(5-(difluoromethyl)-1,3,4-oxadiazol-2-yl)-2-(3′-(trifluoromethoxy)biphenyl-2-yl)isoindolin-1-one]
106%	O=C1c2cc(-c3nnc(C(F)F)o3)ccc2CN1c1ccccc1-c1cccc(F)n1 [Example 301, 6-(5-(difluoromethyl)-1,3,4-oxadiazol-2-yl)-2-(2-(6-fluoropyridin-2-yl)phenyl)-isoindolin-1-one]
100%	COc1cccc(-c2ccccc2N2Cc3ccc(-c4nnc(C(F)F)o4)cc3C2=O)n1 [Example 302, 6-(5-(difluoromethyl)-1,3,4-oxadiazol-2-yl)-2-(2-(6-methoxypyridin-2-yl)-phenyl)isoindolin-1-one]
99%	O=C1c2cc(-c3nnc(C(F)F)o3)ccc2CN1c1ccccc1-c1cnc2occc2c1 [Example 303, 6-(5-(difluoromethyl)-1,3,4-oxadiazol-2-yl)-2-(2-(furo-[2,3-b]pyridin-5-yl)phenyl)-isoindolin-1-one]
99%	O=C1c2cc(-c3nnc(C(F)F)o3)ccc2CN1c1ccccc1-c1ccc2c(c1)OCC2 [Example 304, 6-(5-(difluoromethyl)-1,3,4-oxadiazol-2-yl)-2-(2-(2,3-dihydro-1-benzofuran-6-yl)phenyl)isoindolin-1-one]
